The results in this text go back to US10357477B2, “Anticancer compounds” (REGENTS OF THE UNIVERSITY OF MINNESOTA, priority 2016, dated 2019).

For one series, the system named is MIA PaCa-2 cells. The series can be described thus: Cell viability assay (MTT) in MIA PaCa-2 cells. Particulars: Homo sapiens, antiproliferative activity, 72 h. It is filed as cell-based. The method, then: MIA PaCa-2 cells (CRL-1420, ATCC) were maintained in DMEM media supplemented with 10% FBS, 2.5% HS, 1% GlutaMAX, 1% sodium pyruvate, 100 U/mL penicillin, and 100 μg/mL streptomycin. Cell culture media and additives were purchased from Gibco. Cells were plated in 96-well plates at |1−2.5|×10^4 cells per well in the DMEM growth media. One microliter of a 2-fold serially diluted compound solution in DMSO (Sigma) starting at 20 mM (100 μM final concentration) was added to each well. The final volume in each well was 200 μL, yielding a final DMSO concentration of 0.5%. Control wells contained 0.5% DMSO (100% viability) or 25% DMSO (background) and all reactions were done in triplicate. The plate was incubated for 72 h at 37° C. in a 5% CO2/95% air humidified atmosphere.
Measurement of cell viability was carried out using a modified method of Mosmann based on 3-(4,5-dimethylthiazol-2-yl)-2,5-diphenyltetrazolium bromide (MTT, Sigma). MTT solution was prepared fresh at 1 mg/mL in serum-free and phenol red-free RPMI 1640 media. After 200 μL of MTT solution was added to each well, the plate was incubated as described above for 3 h. The MTT solution was removed, and the formazan crystals were solubilized with 200 μL of isopropanol. The plate was read on a SpectraMax i3 spectrophotometer (Molecular Devices) at 570 nm for formazan and 650 nm for background subtraction. EC50 values were calculated by fitting the data in GraphPad Prism software. EC50 values were determined in triplicate.

The subject of another series is Panc-1 cells. The series can be described thus: Cell viability assay (MTT) in Panc-1 cells. It is filed as cell-based. Conditions: Homo sapiens, antiproliferative activity, 72 h. The method, then: Panc-1 cells are maintained in RPMI 1640 (Invitrogen 11875) media supplemented with 10% FBS, 1% Penicillin/Streptomycin and 1% Glutamax-1. Cells were plated in 96-well plates at 25×10^4 cells/ml. After 24 hours, compounds were added at 9, 3× dilutions in triplicate from 100 uM final concentration in the appropriate growth media. Plates were incubated for 72 hours at 37° C. in a 5% CO2/95% air humidified atmosphere after which time the media was removed and MTT was added in RPMI phenol red free media. The MTT was removed after 3 hours and formazan crystals were solubilized with 200 μL of isopropanol. Plates were read on a Molecular Devices SpectraMax i3 spectrophotometer at 570 nm for formazan and 690 nm for background subtraction. EC50 values were calculated by fitting the data in GraphPad Prism software.

Series [1] is described as follows: Plasma stability assay, human plasma. Conditions: 37° C., 24 h. It is filed as in vitro ADME. On the procedure:
(§1) The plasma stability assay was performed in triplicate by incubating a compound in normal mouse and human plasma at 37° C. At 0, 1, 3, 6, and 24 h, aliquots of the plasma mixture were taken and quenched with 3 volumes of acetonitrile containing an appropriate internal standard. The samples were then vortexed and centrifuged at 14,000 rpm for 5 min. The supernatants were collected and analyzed by LC-MS/MS to determine the remaining percentage at various time points.
(§2) Quantification and analysis of compounds in biological samples were carried out on an AB Sciex QTrap 5500 mass spectrometer coupled with an Agilent 1260 Infinity HPLC. The chromatographic separation of compounds was achieved using a Phenomenex Kinetex C18 column (50×2.1 mm, 2.6 μm), and MS/MS analysis was conducted using an ESI ion source with MRM detection. The MS/MS detection parameters including declustering potential (DP), entrance potential (EP), collision energy (CE), and collision cell exit potential (CXP) were optimized for each compound.

A short description of series [2]: Microsomal stability assay, mouse liver microsomes. Type of series: in vitro ADME. Particulars: pH 7.4; mouse liver microsomes 0.5 mg/mL, 1 mM NADPH, 1 μM compound; read-out: Microsomal Stability t1/2 Mouse. On the procedure: (§3) The in vitro microsomal stability assay was conducted in triplicate in mouse and human liver microsomal systems. In a typical incubation, a compound (typically 1 μM final concentration) was spiked into the reaction mixture containing 0.5 mg/mL of liver microsomal protein and 1 mM of NADPH in 0.1 M potassium phosphate buffer (pH 7.4) at 37° C. At various time points, 1 volume of reaction aliquot was taken and quenched with 3 volumes of acetonitrile with an appropriate internal standard. The samples were then vortexed and centrifuged at 14,000 rpm for 5 min. The supernatants were collected and analyzed by LC-MS/MS to determine the in vitro metabolic half-life (t1/2) and intrinsic clearance (CLint). Verapamil was used as a positive control.
as §2
A general note: Liver microsomes are vesicles of endoplasmic reticulum, rich in cytochrome P450 enzymes.

Series [3] can be described thus: Plasma stability assay, mouse plasma. Type of series: in vitro ADME. Particulars: 37° C., 24 h. The method, then: as §1, §2
The nature of series [4]: Microsomal stability assay, human liver microsomes. Type of series: in vitro ADME. Conditions: pH 7.4; human liver microsomes 0.5 mg/mL, 1 mM NADPH, 1 μM compound; read-out: Microsomal Stability t1/2 Human. On the procedure:
as §3, §2

One may read the EC50 as the midpoint of the concentration-response curve. Read a low EC50 as an effect from little substance.

On to `CNC(=O)c1cccc(Cn2nc(C)c(NC(=O)c3ccc(COc4ccccc4C)cc3)c2C)c1` [Compound D3a, 3-((3,5-Dimethyl-4-(4-((o-tolyloxy)methyl)benzamido)-1H-pyrazol-1-yl)methyl)-N-methylbenzamide], for which the EC50 is 2.1 µM in the series on MIA PaCa-2 cells and 0.61 µM with Panc-1 cells.
The like results for `CNC(=O)c1cccc(Cn2nc(C)c(NC(=O)c3ccc(COc4cccc(C)c4)cc3)c2C)c1` [Compound D3b, 3-((3,5-Dimethyl-4-(4-((m-tolyloxy)methyl)benzamido)-1H-pyrazol-1-yl)methyl)-N-methylbenzamide] were, in that order, 6.2 µM and 0.56 µM.
The like results for `CNC(=O)c1cccc(Cn2nc(C)c(NC(=O)c3ccc(COc4ccc(C)cc4)cc3)c2C)c1` [Compound D3c, 3-((3,5-Dimethyl-4-(4-((p-tolyloxy)methyl)benzamido)-1H-pyrazol-1-yl)methyl)-N-methylbenzamide] were, in that order, 2.6 µM and 13 µM.
`CNC(=O)c1cccc(Cn2nc(C)c(NC(=O)c3ccc(COc4ccccc4OC)cc3)c2C)c1` [Compound D4a, 3-((4-(4-((2-Methoxyphenoxy)methyl)benzamido)-3,5-dimethyl-1H-pyrazol-1-yl)methyl)-N-methylbenzamide]: the values for the half-maximal effective concentration (EC50) in the series on MIA PaCa-2 cells and in the series on Panc-1 cells were 8.5 µM and 25 µM, respectively.
The like results for `CNC(=O)c1cccc(Cn2nc(C)c(NC(=O)c3ccc(COc4cccc(OC)c4)cc3)c2C)c1` [Compound D4b, 3-((4-(4-((3-Methoxyphenoxy)methyl)benzamido)-3,5-dimethyl-1H-pyrazol-1-yl)methyl)-N-methylbenzamide] were, in that order, 6.2 µM and 6.2 µM.
The like results for `CNC(=O)c1cccc(Cn2nc(C)c(NC(=O)c3ccc(COc4ccc(OC)cc4)cc3)c2C)c1` [Compound D4c, 3-((4-(4-((4-Methoxyphenoxy)methyl)benzamido)-3,5-dimethyl-1H-pyrazol-1-yl)methyl)-N-methylbenzamide] were, in that order, 8 µM and 48 µM.
The like results for `CNC(=O)c1cccc(Cn2nc(C)c(NC(=O)c3ccc(COc4ccccc4Cl)cc3)c2C)c1` [Compound D5a, 3-((4-(4-((2-Chlorophenoxy)methyl)benzamido)-3,5-dimethyl-1H-pyrazol-1-yl)methyl)-N-methylbenzamide] were, in that order, 6.3 µM and 9.9 µM.
In the case of `CNC(=O)c1cccc(Cn2nc(C)c(NC(=O)c3ccc(COc4cccc(Cl)c4)cc3)c2C)c1` [Compound D5b, 3-((4-(4-((3-Chlorophenoxy)methyl)benzamido)-3,5-dimethyl-1H-pyrazol-1-yl)methyl)-N-methylbenzamide], the EC50 in the series with MIA PaCa-2 cells came out at 5.9 µM; in the series with Panc-1 cells, 0.038 µM.
Take `CNC(=O)c1cccc(Cn2nc(C)c(NC(=O)c3ccc(COc4ccc(Cl)cc4)cc3)c2C)c1` [Compound D5c, 3-((4-(4-((4-Chlorophenoxy)methyl)benzamido)-3,5-dimethyl-1H-pyrazol-1-yl)methyl)-N-methylbenzamide]: the figures for the 50% effective concentration (EC50) in the series with MIA PaCa-2 cells and in the series with Panc-1 cells were 4.2 µM and 2 µM, respectively.
The like results for `CNC(=O)c1cccc(Cn2nc(C)c(NC(=O)c3ccc(COc4ccccc4F)cc3)c2C)c1` [Compound D6a, 3-((4-(4-((2-Fluorophenoxy)methyl)benzamido)-3,5-dimethyl-1H-pyrazol-1-yl)methyl)-N-methylbenzamide] were, in that order, 5.6 µM and 3 µM.
Turning to `CNC(=O)c1cccc(Cn2nc(C)c(NC(=O)c3ccc(COc4cccc(F)c4)cc3)c2C)c1` [Compound D6b, 3-((4-(4-((3-Fluorophenoxy)methyl)benzamido)-3,5-dimethyl-1H-pyrazol-1-yl)methyl)-N-methylbenzamide], the EC50 worked out at 7.7 µM in the series on MIA PaCa-2 cells and 0.21 µM with Panc-1 cells.
The like results for `CNC(=O)c1cccc(Cn2nc(C)c(NC(=O)c3ccc(COc4ccc(F)cc4)cc3)c2C)c1` [Compound D6c, 3-((4-(4-((4-Fluorophenoxy)methyl)benzamido)-3,5-dimethyl-1H-pyrazol-1-yl)methyl)-N-methylbenzamide] were, in that order, 3.1 µM and 6.9 µM.
The like results for `CNC(=O)c1cccc(Cn2nc(C)c(NC(=O)c3ccc(COc4ccccc4C#N)cc3)c2C)c1` [Compound D7a, 3-((4-(4-((2-Cyanophenoxy)methyl)benzamido)-3,5-dimethyl-1H-pyrazol-1-yl)methyl)-N-methylbenzamide] were, in that order, 12 µM and 8.5 µM.
In the case of `CNC(=O)c1cccc(Cn2nc(C)c(NC(=O)c3ccc(COc4ccc(C#N)cc4)cc3)c2C)c1` [Compound D7c, 3-((4-(4-((4-Cyanophenoxy)methyl)benzamido)-3,5-dimethyl-1H-pyrazol-1-yl)methyl)-N-methylbenzamide], the values for the EC50 in the series on MIA PaCa-2 cells and in the series on Panc-1 cells were 5.6 µM and 22 µM, respectively.
The like results for `CNC(=O)c1cccc(Cn2nc(C)c(NC(=O)c3ccc(COc4ccccc4C(F)(F)F)cc3)c2C)c1` [Compound D9a, 3-((3,5-Dimethyl-4-(4-((2-(trifluoromethyl)phenoxy)methyl)benzamido)-1H-pyrazol-1-yl)methyl)-N-methylbenzamide] were, in that order, 10 µM and 0.44 µM.
The like results for `CNC(=O)c1cccc(Cn2nc(C)c(NC(=O)c3ccc(COc4cccc(C(F)(F)F)c4)cc3)c2C)c1` [Compound D9b, 3-((3,5-Dimethyl-4-(4-((3-(trifluoromethyl)phenoxy)-methyl)benzamido)-1H-pyrazol-1-yl)methyl)-N-methylbenzamide] were, in that order, 2.3 µM and 0.76 µM.
With `CNC(=O)c1cncc(Cn2nc(C)c(NC(=O)c3ccc(COc4ccc(C(F)(F)F)cc4)cc3)c2C)c1` [Compound E3a, 5-((3,5-Dimethyl-4-(4-((4-(trifluoromethyl)phenoxy)methyl)benzamido)-1H-pyrazol-1-yl)methyl)-N-methylnicotinamide], the EC50 with MIA PaCa-2 cells turned out to be 8.6 µM. In addition, in series [1], the “Plasma Stability (% remaining, 6 h/24 h) Human” value is given as “—/94%”. In addition, the values for the half-life at 1 μM in series [2] and in series [4] were 144 min and 82 min, respectively. Besides, the “Plasma Stability (% remaining, 6 h/24 h) Mouse” value in series [3] was “—/100%”.
For the compound `CNC(=O)c1cncc(Cn2nc(C)c(NC(=O)c3ccc(COc4ccc(C(F)(F)F)cc4C)cc3)c2C)c1` [Compound E3b, 5-((3,5-Dimethyl-4-(4-((2-methyl-4-(trifluoromethyl)phenoxy)methyl)benzamido)-1H-pyrazol-1-yl)methyl)-N-methylnicotinamide], the concentration for a half-maximal effect (EC50) in the series on MIA PaCa-2 cells amounted to 7.6 µM. The “Plasma Stability (% remaining, 6 h/24 h) Human” value in series [1] is “—/98%”. Moreover, the half-life at 1 μM was 139 min in series [2] and 74 min in series [4]. For the same compound, in series [3], the “Plasma Stability (% remaining, 6 h/24 h) Mouse” value is “—/100%”.
